Series [1] has as its system MRSA. The experiment in a line: Dispersion of pre-formed biofilms. Type of series: cell-based, methicillin-resistant S. aureus. To be noted: Staphylococcus aureus, read-out: EC50, 50% dispersion of a pre-formed biofilm. The procedure:
(§1) The ability of 15 and 19 to disperse pre-formed biofilms was also determined for all of the aforementioned bacterial strains (both marine and terrestrial). To quantify this effect, the EC50 value of each compound against each bacterial strain was determined, where EC50 is defined as the concentration of compound that elicits 50% dispersion of a pre-formed biofilm. Both compounds are able to disperse pre-formed biofilms at low micromolar concentrations. These concentrations are also microbicidal to planktonic bacteria. […]
(§2) Preformed Biofilms: Dispersion assays were performed by taking an overnight culture of bacterial strain and subculturing it at an OD600 of 0.01 into the necessary medium (brain heart infusion for E. faecium, tryptic soy broth with a 0.5% glucose supplement (TSBG) for MRSA, S. aureus and S. epidermidis, Luria-Bertani (LB) medium for MDRAB and E. coli, and tryptic soy broth with a 0.5% glucose supplement and a 3.0% NaCl supplement (TGN) for R. salexigens, V. cholerae, V. vulnificus and L. anguillarum.) The resulting bacterial suspension was aliquoted (100 μL) into the wells of a 96-well PVC microtiter plate. […] Biofilm dispersion was quantitated by measuring the OD540 of each well in which a negative control lane wherein no biofilm was formed served as a background and was subtracted out.

The next series has as its system Vibrio cholerae. The series is described as follows: Marine bacteria microdilution MIC. Type of series: cell-based. The note with it: V. cholerae. A general note: Dilution methods test growth across graded concentrations, often in twofold steps.
For a further series, the system named is MSSA. The experiment in a line: Broth microdilution MIC. Type of series: cell-based, S. aureus. The note with it: Staphylococcus aureus. The procedure:
(§3) Once it was determined that this specific 4,5-disubstitution pattern imparted microbicidal activity onto the 2-AI framework, this activity was quantified by measuring the MIC of each derivative against a variety of representative pathogenic bacterial strains using the microdilution protocol (CSLI, Performance Standards for Antimicrobial Suceptibility Testing; Nineteenth Informational Supplement, Clinical and Laboratory Standards Institute, Wayne, Pa., 2009). E. coli, MDRAB, P. aeruginosa, MRSA, MSSA, S. epidermidis and VRE were used for initial evaluation. From this screen, compound 15 was determined to be the lead compound and had MIC values (μg/mL) of 2, 2, 1, 0.5, 0.25, and 1 against E. coli, MDRAB, MRSA, VRE, S. Epidermidis and MSSA.
(§4) S. aureus (ATCC #29213), S. epidermidis (ATCC #29886), MRSA (ATCC # BAA-44), MDRAB (ATCC # BAA-1605), vancomycin resistant Enterococcus faecium (VRE) (ATCC #51559) and E. coli (ATCC #35695) were obtained from the ATCC. Mechanically difibrinated sheep blood (DSB100) was obtained from Hemostat Labs. Mueller-Hinton medium was purchased from Fluka (#70192).
(§5) Broth Microdilution Method for MIC Determination.

A further series relates to L. anguillarum. The experiment in a line: Dispersion of pre-formed biofilms. The note with it: Vibrio anguillarum, read-out: EC50, 50% dispersion of a pre-formed biofilm. Type of series: cell-based, Listonella anguillarum. As for the experimental part:
as §1, §2

Another series relates to VRE. The experiment in a line: Broth microdilution MIC. Type of series: cell-based, vancomycin resistant Enterococcus faecium. The note with it: Enterococcus. The procedure:
as §3, §4, §5

The test system of series [2] is difibrinated sheep's blood. The series is described as follows: Red blood cell hemolysis assay. Type of series: cell-based. The procedure: Once the anti-biofilm and antibacterial properties of each 2-AI derivative had both been evaluated, the hemolytic potential of compounds 15, 19 and 1 was assessed (Liu et al., Antimicrob. Agents. Ch., 2007, 51: 597-603). […] Hemolysis was measured using difibrinated sheep's blood. Hemolytic potential was quantified by determining the HD50 of compound 15, 19 and 1, where HD50 is defined as the concentration that elicits 50% hemolysis. From this assay, we determined that the HD50 of compound 15, 19 and 1 were 66 μM, 61 μM and >400 μM. This corresponds to 22 and 21 μg/mL for compounds 15 and 19.
Red Blood Cell Hemolysis Assay.
Hemolysis assays were performed on mechanically difibrinated sheep blood (Hemostat Labs: DSB100). 1.5 mL of blood was placed into a microcentrifuge tube and centrifuged at 10000 rpm for ten minutes. The supernatant was removed and then the cells were resuspended with 1 mL of phosphate-buffered saline (PBS). The suspension was centrifuged, the supernatant was removed and cells resuspended two more times. The final cell suspension was then diluted tenfold. Test compound solutions were made in PBS and then added to aliquots of the tenfold suspension dilution. PBS alone was used as a negative control and as a zero hemolysis marker whereas a 1% Triton X sample was used as a positive control and the 100% lysis marker. Samples were then placed in an incubator at 37° C. while being shaken at 200 rpm for one hour. After one hour, the samples were transferred to microcentrifuge tubes and then centrifuged at 10000 rpm for ten minutes. The resulting supernatant was diluted by a factor of 40 in distilled water. The absorbance of the supernatant was measured with a UV spectrometer at a 540 nm wavelength.

Series [3] deals with MRSA. The experiment in a line: Broth microdilution MIC. Type of series: cell-based, methicillin-resistant S. aureus. To be noted: Staphylococcus aureus. The procedure: as §3, §4, §5
The subject of a further series is R. salexigens. The series is described as follows: Dispersion of pre-formed biofilms. Type of series: cell-based, Rhodospirillum salexigens. The note with it: Rhodothalassium salexigens, read-out: EC50, 50% dispersion of a pre-formed biofilm. As for the experimental part: as §1, §2
The subject of series [4] is E. coli. The experiment in a line: Growth curve analysis (A600). Type of series: cell-based. To be noted: at IC50 concentration (13 μM). An excerpt:
(§6) This is typically indicative of biofilm inhibition via a traditional microbicidal mechanism instead of a mechanism that modulates biofilm formation through non-microbicidal mechanisms. […] At this concentration, a 97% reduction in bacterial growth was observed.

Series [5] has as its system E. coli. The series is described as follows: Biofilm formation inhibition, crystal violet reporter assay. To be noted: Escherichia coli. Type of series: cell-based. The procedure: (§7) The ability of each member of the pilot library to inhibit either E. coli or MDRAB biofilm formation at 100 μM was assessed using a crystal violet reporter assay (O'Toole et al., Mol. Microbiol., 1998, 30: 295-304).
as §6

A further series deals with MDRAB. Described as above. Type of series: cell-based. The procedure: as §7

Values after ≈ are worked out from the molar mass of the structure shown. Read-outs that look alike come from different tables or passages of the source.

A word on the EC50: it is the concentration needed to bring the measured effect to its halfway point. The term MIC denotes the smallest concentration in the dilution series that meets the test's criterion for growth inhibition. The low end stands for a more susceptible organism, the high end for a less susceptible organism. As to `CCCCCCc1[nH]c(N)nc1CCCCCc1ccccc1` [Compound 19, 5-hexyl-4-(5-phenylpentyl)-1H-imidazol-2-amine], the EC50 in the series with MRSA [1] stood at 74.9 ± 9.8 µM; in the series on L. anguillarum it was 13.8 ± 1.5 µM; with R. salexigens, 17.6 ± 3.2 µM. Besides, the MIC amounted to 2.19 µg/mL (≈ 6.99 µM) in the series with Vibrio cholerae; 2.2 µg/mL (≈ 7.02 µM) in the series on Vibrio cholerae (Vibrio cholerae); 1 µg/mL (≈ 3.19 µM) with MSSA; 0.5 µg/mL (≈ 1.59 µM) against VRE; 1 µg/mL (≈ 3.19 µM) against MRSA [3]. Further, the “HD50 (concentration that elicits 50% hemolysis)” value in [2] came out at 61 µM; in series [2] (converted from μM), 21 µg/mL.

As a reminder, the inhibition is the change of the read-out against control, counted positive when it falls. The low end stands for a weak effect, the high end for a strong effect. For orientation: IC50 means the concentration at which inhibition is half-maximal. Higher therefore signals a need for much substance. As to `CCCCCc1[nH]c(N)nc1CCCCCc1ccccc1` [Compound 15, 5-pentyl-4-(5-phenylpentyl)-1H-imidazol-2-amine], the EC50 in the series on MRSA [1] stood at 33.9 ± 3.9 µM; in the series on L. anguillarum it was 14.7 ± 1.7 µM; with R. salexigens, 6.6 ± 1.1 µM. Also, the MIC is 4.20 µg/mL (≈ 14 µM) against Vibrio cholerae; 4.2 µg/mL (≈ 14 µM) in the series on Vibrio cholerae (Vibrio cholerae); 1 µg/mL (≈ 3.34 µM) in the series with MSSA; 0.5 µg/mL (≈ 1.67 µM) against VRE; 1 µg/mL (≈ 3.34 µM) against MRSA [3]. The “reduction in bacterial growth” value in the series with E. coli [4] was determined as 97%. Besides, the inhibition at 100 µM was determined as 83 ± 0.8% in the series with E. coli [5] (100 μM) and 80.3 ± 8.1% with MDRAB. This compound displayed an IC50 with E. coli [5] (dose-response) of 13 µM. In addition, the figures for the “HD50 (concentration that elicits 50% hemolysis)” value in series [2] and in series [2] (converted from μM) were 66 µM and 22 µg/mL, respectively.
